Measured values published in patent US20150197497A1, “SELECTIVE INHIBITORS OF HISTONE DEACETYLASE ISOFORM 6 AND METHODS THEREOF” (DANA-FARBER CANCER INSTITUTE, INC., priority 2011, published 2015).

Legend:
HDAC8 = target: T1, HDAC8 (Homo sapiens, UniProt Q9BY41); test: In vitro HDAC enzyme inhibition assay, HDAC8; type: biochemical; conditions: for HDAC8/HDAC6 in vitro selectivity: ratio of IC50 for HDAC8 relative to that of HDAC6; for IC50: recombinant full-length HDAC8, substrate MAZ1675 282 μM
T1 construct: Recombinant, full-length HDAC protein (BPS Biosciences) was incubated with fluorophore conjugated substrate; purchased BPS Biosciences
T1 sequence (Q9BY41 1-377): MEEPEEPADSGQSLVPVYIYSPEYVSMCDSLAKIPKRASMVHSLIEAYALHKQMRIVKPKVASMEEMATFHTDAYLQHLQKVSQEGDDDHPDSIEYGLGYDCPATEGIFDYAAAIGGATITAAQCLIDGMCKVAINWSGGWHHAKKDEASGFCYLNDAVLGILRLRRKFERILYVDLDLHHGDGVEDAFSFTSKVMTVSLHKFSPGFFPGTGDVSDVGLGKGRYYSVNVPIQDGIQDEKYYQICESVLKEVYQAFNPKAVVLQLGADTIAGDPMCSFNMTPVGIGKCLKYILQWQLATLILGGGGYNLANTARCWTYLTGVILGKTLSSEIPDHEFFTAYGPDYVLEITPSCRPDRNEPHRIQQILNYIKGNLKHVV
Protocol: (§1) In vitro Histone Deacetylase enzyme assays were performed using Class I (isoforms: HDAC1, HDAC2, HDAC3 and HDAC8), class IIa (isoforms: HDAC4, HDAC5, HDAC7 and HDAC9) and class IIb (isoform HDAC6).
(§2) HDAC activities were determined in vitro with an optimized homogenous assay performed in a 384-well plate. Recombinant, full-length HDAC protein (BPS Biosciences) was incubated with fluorophore conjugated substrate, MAZ1600 and MAZ1675, at Km=[S]. […] Reactions were performed in assay buffer (50 mM HEPES, 100 mM KCl, 0.001% Tween-20, 0.05% BSA, 200 μM tris(2-carboxyethyl)phosphine (TCEP), pH 7.4) and followed for fluorogenic release of 7-amino-4-methylcoumarin from substrate upon deacetylase and trypsin enzymatic activity. Fluorescence measurements were obtained every five minutes using a multilabel plate reader and plate-stacker (Envision; Perkin-Elmer). Each plate was analyzed by plate repeat, and the first derivative within the linear range was imported into analytical software (Spotfire DecisionSite and GraphPad Prism). Replicate experimental data from incubations with inhibitor were normalized to controls.

HDAC9 = target: T2, HDAC9 (Homo sapiens, UniProt Q9UKV0); test: In vitro HDAC enzyme inhibition assay, HDAC9; type: biochemical; conditions: for HDAC9/HDAC6 in vitro selectivity: ratio of IC50 for HDAC9 relative to that of HDAC6; for IC50: recombinant full-length HDAC9, substrate MAZ1675 26 μM
T2 construct: Recombinant, full-length HDAC protein (BPS Biosciences) was incubated with fluorophore conjugated substrate; purchased BPS Biosciences
Protocol: as §1, §2

HDAC1 = target: T3, HDAC1 (Homo sapiens, UniProt Q13547); test: In vitro HDAC enzyme inhibition assay, HDAC1; type: biochemical; conditions: for HDAC1/HDAC6 in vitro selectivity: ratio of IC50 for HDAC1 relative to that of HDAC6; for IC50: recombinant full-length HDAC1, substrate MAZ1600 21 μM
T3 construct: Recombinant, full-length HDAC protein (BPS Biosciences) was incubated with fluorophore conjugated substrate; purchased BPS Biosciences
Protocol: as §1, §2

HDAC5 = target: T4, HDAC5 (Homo sapiens, UniProt Q9UQL6); test: In vitro HDAC enzyme inhibition assay, HDAC5; type: biochemical; conditions: for HDAC5/HDAC6 in vitro selectivity: ratio of IC50 for HDAC5 relative to that of HDAC6; for IC50: recombinant full-length HDAC5, substrate MAZ1675 40 μM
T4 construct: Recombinant, full-length HDAC protein (BPS Biosciences) was incubated with fluorophore conjugated substrate; purchased BPS Biosciences
Protocol: as §1, §2

acetylated histones = test: High-content image analysis of induction of acetylated histones in A549 cells; conditions: for EC50: Homo sapiens, A549, 8 h, read-out: EC50 for half-maximal induction of acetylated histones (AcHistone)
HDAC6 = target: T5, HDAC6 (Homo sapiens, UniProt Q9UBN7); test: In vitro HDAC enzyme inhibition assay, HDAC6; type: biochemical; conditions: recombinant full-length HDAC6, substrate MAZ1600 9 μM
T5 construct: Recombinant, full-length HDAC protein (BPS Biosciences) was incubated with fluorophore conjugated substrate; purchased BPS Biosciences
T5 sequence (Q9UBN7 1-1215): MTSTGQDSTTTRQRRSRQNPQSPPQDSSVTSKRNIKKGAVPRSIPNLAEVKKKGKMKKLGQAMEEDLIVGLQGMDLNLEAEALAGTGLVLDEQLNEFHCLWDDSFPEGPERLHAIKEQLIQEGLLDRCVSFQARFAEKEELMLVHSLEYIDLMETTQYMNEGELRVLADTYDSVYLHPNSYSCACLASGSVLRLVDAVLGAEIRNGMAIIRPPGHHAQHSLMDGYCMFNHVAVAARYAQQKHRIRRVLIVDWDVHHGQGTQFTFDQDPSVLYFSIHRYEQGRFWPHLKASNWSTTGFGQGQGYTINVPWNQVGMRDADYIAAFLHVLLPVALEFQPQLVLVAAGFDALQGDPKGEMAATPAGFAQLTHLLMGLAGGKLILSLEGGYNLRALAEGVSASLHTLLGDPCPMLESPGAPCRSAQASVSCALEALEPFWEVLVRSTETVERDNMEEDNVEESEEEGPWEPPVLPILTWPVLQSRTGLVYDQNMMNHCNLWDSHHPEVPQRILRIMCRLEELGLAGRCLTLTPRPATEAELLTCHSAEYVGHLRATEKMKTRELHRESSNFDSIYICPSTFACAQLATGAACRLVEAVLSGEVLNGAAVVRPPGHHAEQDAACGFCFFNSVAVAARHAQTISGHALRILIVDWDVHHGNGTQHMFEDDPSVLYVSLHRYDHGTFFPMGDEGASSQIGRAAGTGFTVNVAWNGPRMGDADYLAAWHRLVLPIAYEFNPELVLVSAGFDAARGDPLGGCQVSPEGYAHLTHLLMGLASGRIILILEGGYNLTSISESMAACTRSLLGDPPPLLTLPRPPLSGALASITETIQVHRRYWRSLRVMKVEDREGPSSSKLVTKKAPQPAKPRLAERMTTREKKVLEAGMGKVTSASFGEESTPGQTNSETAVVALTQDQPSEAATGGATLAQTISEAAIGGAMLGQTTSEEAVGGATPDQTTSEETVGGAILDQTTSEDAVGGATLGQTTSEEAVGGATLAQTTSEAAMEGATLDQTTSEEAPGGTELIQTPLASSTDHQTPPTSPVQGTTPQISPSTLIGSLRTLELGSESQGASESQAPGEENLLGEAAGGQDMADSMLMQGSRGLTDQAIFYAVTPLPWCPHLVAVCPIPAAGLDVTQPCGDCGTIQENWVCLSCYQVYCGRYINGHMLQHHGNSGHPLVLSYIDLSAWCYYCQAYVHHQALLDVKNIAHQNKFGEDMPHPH
Protocol: as §1, §2

HDAC4 = target: T6, HDAC4 (Homo sapiens, UniProt P56524); test: In vitro HDAC enzyme inhibition assay, HDAC4; type: biochemical; conditions: for HDAC4/HDAC6 in vitro selectivity: ratio of IC50 for HDAC4 relative to that of HDAC6; for IC50: recombinant full-length HDAC4, substrate MAZ1675 10 μM
T6 construct: Recombinant, full-length HDAC protein (BPS Biosciences) was incubated with fluorophore conjugated substrate; purchased BPS Biosciences
Protocol: as §1, §2

acetylated tubulin = test: High-content image analysis of induction of acetylated tubulin in A549 cells; conditions: for EC50: Homo sapiens, A549, 8 h, read-out: EC50 for half-maximal induction of acetylated tubulin (AcTubulin); for AcHistone/AcTubulin in cell selectivity toward HDAC6: ratio of EC50 acetylated histone to EC50 acetylated tubulin
HDAC3 = target: T7, HDAC3 (Homo sapiens, UniProt O15379); test: In vitro HDAC enzyme inhibition assay, HDAC3; type: biochemical; conditions: for HDAC3/HDAC6 in vitro selectivity: ratio of IC50 for HDAC3 relative to that of HDAC6; for IC50: recombinant full-length HDAC3, substrate MAZ1600 9 μM
T7 construct: Recombinant, full-length HDAC protein (BPS Biosciences) was incubated with fluorophore conjugated substrate; purchased BPS Biosciences
Protocol: as §1, §2

T2 sequence (Q9UKV0 whole entry): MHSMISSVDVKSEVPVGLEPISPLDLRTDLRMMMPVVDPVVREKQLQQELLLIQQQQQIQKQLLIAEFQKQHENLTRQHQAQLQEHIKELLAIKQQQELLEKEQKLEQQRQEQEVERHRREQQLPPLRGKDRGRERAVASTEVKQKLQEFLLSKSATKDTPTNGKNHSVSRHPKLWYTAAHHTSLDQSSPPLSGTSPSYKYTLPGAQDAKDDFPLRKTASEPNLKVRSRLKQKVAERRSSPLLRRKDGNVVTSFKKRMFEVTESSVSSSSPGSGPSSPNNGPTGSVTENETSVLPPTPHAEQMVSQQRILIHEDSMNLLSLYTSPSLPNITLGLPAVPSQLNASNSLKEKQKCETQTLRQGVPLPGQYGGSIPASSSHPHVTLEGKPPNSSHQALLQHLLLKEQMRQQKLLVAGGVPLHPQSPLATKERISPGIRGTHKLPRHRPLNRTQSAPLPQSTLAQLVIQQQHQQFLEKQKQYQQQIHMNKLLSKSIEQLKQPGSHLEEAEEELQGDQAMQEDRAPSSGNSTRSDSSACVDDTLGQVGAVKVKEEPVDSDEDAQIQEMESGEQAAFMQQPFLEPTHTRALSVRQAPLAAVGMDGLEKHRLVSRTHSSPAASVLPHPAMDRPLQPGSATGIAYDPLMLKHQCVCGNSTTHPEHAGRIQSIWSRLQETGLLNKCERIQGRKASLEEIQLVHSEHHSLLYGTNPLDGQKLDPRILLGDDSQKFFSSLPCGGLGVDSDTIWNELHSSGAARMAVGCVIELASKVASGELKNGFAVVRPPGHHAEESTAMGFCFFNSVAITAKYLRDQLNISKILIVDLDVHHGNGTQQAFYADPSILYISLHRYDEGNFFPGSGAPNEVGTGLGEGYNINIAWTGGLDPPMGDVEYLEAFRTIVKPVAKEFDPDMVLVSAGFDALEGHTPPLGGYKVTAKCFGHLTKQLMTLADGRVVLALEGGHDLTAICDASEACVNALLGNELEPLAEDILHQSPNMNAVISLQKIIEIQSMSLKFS
T6 sequence (P56524 whole entry): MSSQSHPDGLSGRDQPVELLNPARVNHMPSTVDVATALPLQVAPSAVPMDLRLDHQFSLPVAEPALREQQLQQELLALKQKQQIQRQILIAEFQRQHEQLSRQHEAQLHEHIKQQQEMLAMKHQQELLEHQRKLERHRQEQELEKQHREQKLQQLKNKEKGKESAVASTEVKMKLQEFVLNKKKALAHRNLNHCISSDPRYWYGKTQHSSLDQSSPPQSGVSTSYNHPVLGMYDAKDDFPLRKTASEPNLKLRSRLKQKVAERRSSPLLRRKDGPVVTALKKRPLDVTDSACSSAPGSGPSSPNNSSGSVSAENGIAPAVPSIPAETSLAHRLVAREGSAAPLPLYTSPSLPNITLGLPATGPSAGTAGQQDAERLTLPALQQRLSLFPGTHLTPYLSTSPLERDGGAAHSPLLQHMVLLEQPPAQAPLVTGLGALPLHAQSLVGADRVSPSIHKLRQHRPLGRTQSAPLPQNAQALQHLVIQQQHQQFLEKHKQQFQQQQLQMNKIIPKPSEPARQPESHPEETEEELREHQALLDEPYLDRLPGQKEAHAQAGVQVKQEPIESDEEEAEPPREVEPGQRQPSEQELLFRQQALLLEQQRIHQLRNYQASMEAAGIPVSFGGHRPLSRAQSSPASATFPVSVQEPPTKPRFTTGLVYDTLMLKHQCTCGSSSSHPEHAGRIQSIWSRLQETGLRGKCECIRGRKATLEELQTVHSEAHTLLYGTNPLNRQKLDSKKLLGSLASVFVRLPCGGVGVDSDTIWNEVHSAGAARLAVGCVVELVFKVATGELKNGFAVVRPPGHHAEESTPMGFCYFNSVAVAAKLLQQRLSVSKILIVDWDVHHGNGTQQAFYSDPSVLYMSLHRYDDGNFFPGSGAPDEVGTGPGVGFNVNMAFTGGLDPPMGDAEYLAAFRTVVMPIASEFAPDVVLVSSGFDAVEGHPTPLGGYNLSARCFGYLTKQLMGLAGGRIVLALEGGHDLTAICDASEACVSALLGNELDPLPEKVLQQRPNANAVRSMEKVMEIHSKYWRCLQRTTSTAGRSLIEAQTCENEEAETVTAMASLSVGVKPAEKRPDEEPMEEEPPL
T7 sequence (O15379 whole entry): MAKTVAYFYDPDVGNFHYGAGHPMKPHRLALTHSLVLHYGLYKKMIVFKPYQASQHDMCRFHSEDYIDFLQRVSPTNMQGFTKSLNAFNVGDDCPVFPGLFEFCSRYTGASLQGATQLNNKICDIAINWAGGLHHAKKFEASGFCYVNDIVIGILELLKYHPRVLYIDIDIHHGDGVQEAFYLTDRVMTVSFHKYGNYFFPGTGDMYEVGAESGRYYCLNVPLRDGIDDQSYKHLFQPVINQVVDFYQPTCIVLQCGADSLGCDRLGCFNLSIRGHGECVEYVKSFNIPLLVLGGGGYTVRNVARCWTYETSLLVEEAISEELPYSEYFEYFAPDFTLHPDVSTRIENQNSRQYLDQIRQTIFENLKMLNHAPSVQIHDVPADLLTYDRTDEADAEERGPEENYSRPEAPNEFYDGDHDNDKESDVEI
T7 sequence (Q9Y618 395-489 partner limits assumed): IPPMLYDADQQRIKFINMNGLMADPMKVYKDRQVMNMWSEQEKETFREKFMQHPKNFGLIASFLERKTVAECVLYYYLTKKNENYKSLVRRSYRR
T3 sequence (Q13547 whole entry): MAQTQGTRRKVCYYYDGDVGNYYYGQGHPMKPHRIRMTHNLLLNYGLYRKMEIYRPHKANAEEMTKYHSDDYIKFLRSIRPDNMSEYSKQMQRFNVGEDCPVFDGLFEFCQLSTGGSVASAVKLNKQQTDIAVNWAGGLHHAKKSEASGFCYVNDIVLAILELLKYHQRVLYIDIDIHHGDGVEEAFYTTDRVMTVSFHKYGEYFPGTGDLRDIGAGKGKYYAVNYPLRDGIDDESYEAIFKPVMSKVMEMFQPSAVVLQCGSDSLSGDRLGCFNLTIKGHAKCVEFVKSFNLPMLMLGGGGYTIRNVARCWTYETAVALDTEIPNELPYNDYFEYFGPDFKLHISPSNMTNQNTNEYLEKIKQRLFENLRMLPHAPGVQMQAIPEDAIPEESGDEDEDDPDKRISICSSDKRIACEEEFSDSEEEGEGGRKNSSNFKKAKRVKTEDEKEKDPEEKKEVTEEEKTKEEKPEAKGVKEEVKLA
T4 sequence (Q9UQL6 whole entry): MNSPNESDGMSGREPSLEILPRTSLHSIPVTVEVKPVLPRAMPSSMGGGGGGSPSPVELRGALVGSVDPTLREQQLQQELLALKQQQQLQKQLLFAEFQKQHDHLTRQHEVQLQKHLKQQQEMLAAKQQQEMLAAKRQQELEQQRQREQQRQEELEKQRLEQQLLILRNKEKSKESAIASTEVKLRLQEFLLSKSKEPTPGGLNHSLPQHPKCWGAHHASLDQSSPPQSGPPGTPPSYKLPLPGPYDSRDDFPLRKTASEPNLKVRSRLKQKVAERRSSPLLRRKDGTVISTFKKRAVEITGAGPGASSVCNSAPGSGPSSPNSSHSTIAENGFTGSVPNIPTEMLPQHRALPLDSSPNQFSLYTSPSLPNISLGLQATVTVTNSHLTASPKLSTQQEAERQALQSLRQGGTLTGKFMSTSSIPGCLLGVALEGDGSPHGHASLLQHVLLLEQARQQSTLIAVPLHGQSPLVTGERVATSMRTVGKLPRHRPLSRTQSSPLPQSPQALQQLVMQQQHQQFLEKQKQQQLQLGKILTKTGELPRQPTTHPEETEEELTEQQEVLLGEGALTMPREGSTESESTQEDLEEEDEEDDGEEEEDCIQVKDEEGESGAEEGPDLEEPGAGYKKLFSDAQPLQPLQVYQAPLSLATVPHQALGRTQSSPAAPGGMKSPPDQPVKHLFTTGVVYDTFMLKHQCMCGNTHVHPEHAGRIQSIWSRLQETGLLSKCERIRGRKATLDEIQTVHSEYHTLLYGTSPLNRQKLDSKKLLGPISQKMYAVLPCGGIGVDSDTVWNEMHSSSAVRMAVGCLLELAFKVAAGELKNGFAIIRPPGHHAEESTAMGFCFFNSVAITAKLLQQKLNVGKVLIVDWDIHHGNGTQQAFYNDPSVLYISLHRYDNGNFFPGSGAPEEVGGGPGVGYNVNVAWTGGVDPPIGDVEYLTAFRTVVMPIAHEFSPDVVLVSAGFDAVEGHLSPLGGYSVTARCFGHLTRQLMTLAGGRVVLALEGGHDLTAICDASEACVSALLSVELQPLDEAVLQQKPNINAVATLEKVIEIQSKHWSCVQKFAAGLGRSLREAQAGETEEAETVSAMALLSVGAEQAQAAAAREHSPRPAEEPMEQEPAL

Compound	HDAC8/HDAC6 in vitro selectivity (HDAC8)	IC50 (HDAC8)	HDAC9/HDAC6 in vitro selectivity (HDAC9)	IC50 (HDAC9)	HDAC1/HDAC6 in vitro selectivity (HDAC1)	IC50 (HDAC1)	HDAC5/HDAC6 in vitro selectivity (HDAC5)	IC50 (HDAC5)	EC50 (acetylated histones)	IC50 (HDAC6)	HDAC4/HDAC6 in vitro selectivity (HDAC4)	IC50 (HDAC4)	EC50 (acetylated tubulin)	HDAC3/HDAC6 in vitro selectivity (HDAC3)	IC50 (HDAC3)	AcHistone/AcTubulin in cell selectivity toward HDAC6 (acetylated tubulin; A549 cells)	other results
COc1ccc2c(c1)ncn2Cc1ccc(C(=O)NO)cc1 [A12, N-hydroxy-4-((5-methoxy-1H-benzo[d]imidazol-1-yl)methyl)benzamide]	6543	1420 nM	10933	2370 nM	1378	299 nM	7819	1700 nM	105 nM	0.217 nM	12423	2690 nM	221 nM	2293	497 nM	0.4738	–
O=C(NO)c1ccc(Cn2c(C(F)(F)F)nc3ccccc32)cc1 [A1, N-hydroxy-4-((2-(trifluoromethyl)-1H-benzo[d]imidazol-1-yl)methyl)benzamide]	3764	1780 nM	2167	1020 nM	1444	682 nM	953	450 nM	6340 nM	0.472 nM	2948	1390 nM	452 nM	3791	1790 nM	14.01	levels of acetylated histone, dose response (in words) (acetylated histones; A549 cells, FIG. 11): absence of the dose-dependent response; levels of acetylated tubulin, dose response (in words) (acetylated tubulin; A549 cells, FIG. 11): dose-dependent increase
Cc1ccc2c(c1)nc(C(F)(F)F)n2Cc1ccc(C(=O)NO)cc1 [A2, N-hydroxy-4-((5-methyl-2-(trifluoromethyl)-1H-benzo[d]imidazol-1-yl)methyl)benzamide]	4364	1330 nM	1942	594 nM	808	247 nM	537	164 nM	242 nM	0.306 nM	2775	848 nM	100 nM	3718	1140 nM	2.411	–
COc1ccc2c(c1)nc(C(F)(F)F)n2Cc1ccc(C(=O)NO)cc1 [A6, N-hydroxy-4-((5-methoxy-2-(trifluoromethyl)-1H-benzo[d]imidazol-1-yl)methyl)benzamide]	3927	1540 nM	1871	733 nM	629	246 nM	637	250 nM	2590 nM	0.392 nM	2414	946 nM	212 nM	2067	810 nM	12.2081	–

Now from value to compound, other results behind:

HDAC8/HDAC6 in vitro selectivity (HDAC8)	IC50 (HDAC8)	HDAC9/HDAC6 in vitro selectivity (HDAC9)	IC50 (HDAC9)	HDAC1/HDAC6 in vitro selectivity (HDAC1)	IC50 (HDAC1)	HDAC5/HDAC6 in vitro selectivity (HDAC5)	IC50 (HDAC5)	EC50 (acetylated histones)	IC50 (HDAC6)	HDAC4/HDAC6 in vitro selectivity (HDAC4)	IC50 (HDAC4)	EC50 (acetylated tubulin)	HDAC3/HDAC6 in vitro selectivity (HDAC3)	IC50 (HDAC3)	Compound	AcHistone/AcTubulin in cell selectivity toward HDAC6 (acetylated tubulin; A549 cells)	other results
19098	305 nM	67800	1080 nM	3996	63.9 nM	59773	956 nM	7140 nM	0.016 nM	66860	1070 nM	2700 nM	10277	164 nM	O=C(NO)c1ccc(Cn2nnc3ccccc32)cc1 [C1, 4-((1H-benzo[d][1,2,3]triazol-1-yl)methyl)-N-hydroxybenzamide]	2.641	selectivity toward HDAC6 compared to HDAC9 (in words) (HDAC9; tested in vitro): exceptionally high selectivity (Inhibitors with in vitro selectivity values for HDAC6 of at least 30,000 are considered to have exceptionally high selectivity toward HDAC6); selectivity toward HDAC6 compared to HDAC5 (in words) (HDAC5; tested in vitro): exceptionally high selectivity (Inhibitors with in vitro selectivity values for HDAC6 of at least 30,000 are considered to have exceptionally high selectivity toward HDAC6); selectivity toward HDAC6 compared to HDAC4 (in words) (HDAC4; tested in vitro): exceptionally high selectivity (Inhibitors with in vitro selectivity values for HDAC6 of at least 30,000 are considered to have exceptionally high selectivity toward HDAC6)
6673	169 nM	16475	416 nM	209	5.29 nM	22793	576 nM	420 nM	0.0253 nM	25301	639 nM	80.5 nM	353	8.92 nM	O=C(NO)c1ccc(Cn2c(=O)[nH]c3cc(Cl)ccc32)cc1 [B4, 4-((5-chloro-2-oxo-2,3-dihydro-1H-benzo[d]imidazol-1-yl)methyl)-N-hydroxybenzamide]	5.217	–
